Assay results published in patent publication US4073935A, “Substituted propanol-(2)-derivatives and their nicotinic acid esters, and process for their preparation, and the use thereof as hypolipemic drugs” (Klinge Pharma GmbH & Co., priority 1974, dated 1978).
Read-outs that look alike come from different tables or passages of the source.

Assays:
serum lipids = experiment: Lipid-lowering action in normolipemic rats; format: in vivo; conditions: Rattus norvegicus, 72 h, 4 × 100 mg/kg oral over 3 days, male Wistar rats, vs controls, X ± Sx
Method: Lipid-lowering action was tested on groups of 10 male Wistar rats (Ivanovas-Kisslegg), weight 200-220 g, normolipemic, or ordinary ration ("ssniff" complete feed).
The test compounds were taken up in an aqueous solution of 0.25% agar and 0.85% NaCl and administered orally. After administration of 4 × 100 mg/kg over a period of 3 days, the animals were bled by cardiac puncture after privation of […] for 4 hours.^1
^1 H. Enomoto and R. Zschocke, 3rd Int. Symp. Atheroscler, Berlin 1973, Abstr. 238.
Serum lipids were determined with a Technicon autoanalyzer. Total cholesterol (TC) was tested by the Liebermann-Burchard reaction. Quantitative analysis for triglycerides (TG) was performed by Eggstein and Kreutz's enzyme method (Klin. Wschr. 44, 262, 1966), modified for autoanalyzer.
Lipid lowering effect is expressed as percent lowering of total cholesterol and triglycerides compared to controls.

[1] = Oral tolerance (acute toxicity, LD50); conditions: mouse, in vivo, mice, 8th day after treatment, Litchfield-Wilcoxon
Method: After oral administration of the test compounds to mice of strain NMR-I, weight 15-20 g, the acute toxicity was determined. LD50 values were calculated following Litchfield-Wilcoxon (J. Pharmak. Exp. Therap. 96, 99, 1949) and pertain to the 8th day after treatment.

[2] = read-out: % Lowering TC (total cholesterol)
[3] = read-out: % Lowering TG (triglycerides)

Compound | inhibition in vivo at 100 mg/kg (serum lipids; [2]) | inhibition in vivo at 100 mg/kg (serum lipids; [3]) | LD50 at 192 h [1]
CC(C)(C)c1ccc(OCC(O)CNc2cccc(C(=O)O)c2)cc1 (stereo not drawn) [Compound 71, 3-(3'-Carboxyphenylamino)-1-(4'-t-butylphenoxy)-propanol-(2)] | 28.9 ± 9.5% | 58.4 ± 15.5% | 
CC(C)(C)c1ccc(NCC(O)COc2ccc(C(=O)O)cc2)cc1 (stereo not drawn) [Compound 72, 3-(4'-Carboxyphenoxy)-1-(4'-t-butylphenylamino)-propanol-(2)] | 53.7 ± 10.4% | 75.1 ± 9.9% | 
CC(C)(C)c1ccc(NCC(O)COc2ccc(C=CC(=O)O)cc2)cc1 (stereo not drawn) [Compound 74, 3-4'-(2-Carboxyvinyl)-phenoxy!-1-(4'-t-butylphenylamino)-propanol-(2)] | 50.7 ± 6.4% | 69.7 ± 9.6% | 
O=C(O)c1ccc(OCC(O)CSc2ccc(Cl)cc2)cc1 (stereo not drawn) [Compound 75, 3-(4'-Carboxyphenoxy)-1-(4'-chlorphenylmercapto)-propanol-(2)] | 32.2 ± 8.7% | 55.8 ± 14.2% | 
O=C(O)C=Cc1ccc(OCC(O)CSc2ccc(Cl)cc2)cc1 (stereo not drawn) [Compound 77, 3-4'-(2-Carboxyvinyl)-phenoxy!-1-(4'-chlorphenylmercapto)-propanol-(2)] | 55.5 ± 12.7% | 77.8 ± 12% | 
CC(C)(C)c1ccc(SCC(O)COc2ccc(C(=O)O)cc2)cc1 (stereo not drawn) [Compound 80, 3-(4'-Carboxyphenoxy)-1-(4'-t-butylphenylmercapto)-propanol-(2)] | 48.2 ± 11.6% | 71.6 ± 18.6% | 
CC(C)(C)c1ccc(SCC(O)COc2ccc(C=CC(=O)O)cc2)cc1 (stereo not drawn) [Compound 81, 3-4'-(2-Carboxyvinyl)-phenoxy!-1-(4'-t-butylphenylmercapto)-propanol-(2)] | 27.5 ± 12.7% | 58.7 ± 14.8% | 
O=C(OCCCl)c1ccc(OCC(O)COc2ccc(Cl)cc2)cc1 (stereo not drawn) [Compound 82] | 53.9 ± 9.1% | 83.8 ± 6% | 
CN(C)CCOC(=O)c1ccc(OCC(O)COc2ccc(Cl)cc2)cc1 (stereo not drawn) [Compound 83] | 46.2 ± 15.4% | 72.5 ± 11.1% | 
O=C(OCc1cccnc1)c1ccc(OCC(O)COc2ccc(Cl)cc2)cc1 (stereo not drawn) [Compound 85, 3-(4'-pyridyl-(3)-methoxycarbonylphenoxy)-1-(4'-chlorophenoxy)-propanol-(2)] | 52 ± 8.6% | 81.4 ± 5.9% | 
COC(=O)c1ccc(OCC(COc2ccc(Cl)cc2)OC(=O)c2cccnc2)cc1 (stereo not drawn) [Compound 95, 3-(4'-methoxycarbonylphenoxy)-1-(4'-chlorophenoxy)-propanol-(2) nicotinic acid ester] | 38.3 ± 15.4% | 63.8 ± 14.8% | 
CC(C)OC(=O)c1ccc(OCC(COc2ccc(Cl)cc2)OC(=O)c2cccnc2)cc1 (stereo not drawn) [Compound 96] | 36.8 ± 14.3% | 74 ± 4.8% | 
COC(=O)c1ccc(OCC(CSc2ccc(Cl)cc2)OC(=O)c2cccnc2)cc1 (stereo not drawn) [Compound 104] | 48 ± 7.9% | 81.1 ± 5.6% | 
O=C(NO)c1ccc(OCC(O)COc2ccc(Cl)cc2)cc1 (stereo not drawn) [Compound 105] | 29.8 ± 14.3% | 53.2 ± 11.2% | 
O=C(C=Cc1ccc(OCC(O)COc2ccc(Cl)cc2)cc1)NO (stereo not drawn) [Compound 106, 3-(4'-(2-(n-hydroxycarbamoyl)-vinyl)-phenoxy)-1-(4'-chlorophenoxy)-propanol-(2)] | 43.9 ± 19.4% | 64.2 ± 17.1% | 
O=C(CCc1ccc(OCC(O)COc2ccc(Cl)cc2)cc1)NO (stereo not drawn) [Compound 107] | 49.6 ± 13.3% | 84.8 ± 4.1% | 
CC(C)(C)c1ccc(OCC(O)COc2ccc(C(=O)NO)cc2)cc1 (stereo not drawn) [Compound 108] | 51.1 ± 8.3% | 77.8 ± 3.3% | 
CCOC(OCC)c1ccc(OCC(O)COc2ccc(Cl)cc2)cc1 (stereo not drawn) [Compound 110] | 32.1 ± 15.8% | 68 ± 6.5% | 
COC(OC)c1ccc(OCC(O)COc2ccc(C(C)(C)C)cc2)cc1 (stereo not drawn) [Compound 113] | 44.4 ± 11.2% | 84 ± 8.8% | 
CC(C)(C)c1ccc(OCC(O)COc2ccc(C3OCCO3)cc2)cc1 (stereo not drawn) [Compound 114] | 67.9 ± 6.6% | 91.6 ± 4.8% | 
COC(OC)c1ccc(OCC(O)CSc2ccc(Cl)cc2)cc1 (stereo not drawn) [Compound 116] | 43.2 ± 9.8% | 74 ± 9.8% | 
CCOC(=O)C(C)(C)Oc1ccc(Cl)cc1 [clofibrate, 2-(4'-chlorophenoxy)-2-methylpropionic acid ethyl ester, reference compound] | 37.4 ± 13.6% | 50.4 ± 20% | 1900 mg/kg
